Laboratory results published in article PMC5298231, “The Malaria Parasite's Lactate Transporter PfFNT Is the Target of Antiplasmodial Compounds Identified in Whole Cell Phenotypic Screens” (PLoS Pathogens, 2017).
Where “and” joins values, the source holds several entries; their conditions need not be identical. Equal entries are not always repeated. Structures can show the parent of a compound that is named as a salt. Peptide text beside a SMILES is read from it.

Test system: erythrocytes infected with 3D7 trophozoites
Assay type: cell-based, Plasmodium falciparum
Conditions: sheet Ratio; for Ratio of metabolite abundance, Exp1_1hr: Exp1, 1hr; for Ratio of metabolite abundance, Exp1_3hr: Exp1, 3hr; for Ratio of metabolite abundance, Exp1_6hr: Exp1, 6hr; for Ratio of metabolite abundance, Exp2_1hr: Exp2, 1hr; for Ratio of metabolite abundance, Exp2_3hr: Exp2, 3hr; for Ratio of metabolite abundance, Exp2_6hr: Exp2, 6hr; for Ratio of metabolite abundance, Exp3_1hr: Exp3, 1hr; for Ratio of metabolite abundance, Exp3_3hr: Exp3, 3hr; for Ratio of metabolite abundance, Exp3_6hr: Exp3, 6hr

Compound | Ratio of metabolite abundance, Exp1_1hr | Ratio of metabolite abundance, Exp1_3hr | Ratio of metabolite abundance, Exp1_6hr | Ratio of metabolite abundance, Exp2_1hr | Ratio of metabolite abundance, Exp2_3hr | Ratio of metabolite abundance, Exp2_6hr | Ratio of metabolite abundance, Exp3_1hr | Ratio of metabolite abundance, Exp3_3hr | Ratio of metabolite abundance, Exp3_6hr
O=C(O)CCC(O)C(=O)O (stereo not drawn) [2-Hydroxyglutarate] | 0.7468 | 0.6009 | 0.699 | 0.8783 | 0.8007 | 0.7015 | 0.9193 | 0.5841 | 0.9208
O=C(O)CCC(=O)C(=O)O [2-Ketoglutarate] | 0.5638 | 0.5076 | 0.5229 | 1.061 | 0.5178 | 0.7675 | 0.6752 | 0.6868 | 0.9353
O=C(O)[C@H](O)COP(=O)(O)O [3-Phosho-D-glycerate] | 0.9975 | 1.1161 | 1.013 | 1.017 | 0.9815 | 1.001 | 0.9949 | 1.065 | 1.039
N[C@@H](COP(=O)(O)O)C(=O)O [3-Phospho-serine] | 0.7768 | 0.7478 | 0.6073 | 1.092 | 0.7496 | 0.7836 | 0.6617 | 0.7708 | 0.5594
NCCCC(=O)O [4-Aminobutanoate] | 3.908 | 0.7769 | 1.748 | 3.257 | 2.342 | 1.761 | 0.9389 | 3.211 | 3.145
O=P(O)(O)OC[C@H]1OC(OP(=O)(O)OP(=O)(O)O)[C@H](O)[C@@H]1O (stereo partly drawn) [5-Phosphoribosyl-1-pyrophosphate] | 1.134 | 1.199 | 1.224 | 2.035 | 1.2624 | 1.3078 | 0.8985 | 1.899 | 1.985
O=C(O)[C@H](O)[C@@H](O)[C@H](O)[C@H](O)COP(=O)(O)O [6-Phospho-D-gluconate] | 1.0502 and 0.8295 | 0.8826 and 0.6724 | 0.7609 and 0.6355 | 0.8989 and 0.6621 | 0.8049 and 0.5841 | 0.8315 and 0.5366 | 0.955 and 0.8159 | 0.8757 and 0.6904 | 0.7181 and 0.6347
Nc1ncnc2c1ncn2[C@@H]1O[C@H](COP(=O)(O)OP(=O)(O)O)[C@@H](O)[C@H]1O [ADP] | 0.7745 | 0.4477 | 0.5852 | 1.167 | 0.7455 | 0.8713 | 0.9108 | 0.6751 | 1.045
Nc1ncnc2c1ncn2[C@@H]1O[C@H](COP(=O)(O)O)[C@@H](O)[C@H]1O [AMP] | 0.6651 | 0.4095 | 0.7534 | 1.745 | 0.5002 | 0.6205 | 1.254 | 1.491 | 1.967
CC(C)C[C@H](NC(=O)[C@@H](NC(=O)[C@H](C)N)[C@@H](C)O)C(=O)N[C@@H](CO)C(=O)O [ATLS] (H-ATLS-OH) | 1.05 | 0.6654 | 0.8386 | 1.031 | 0.8993 | 0.9335 | 1.05 | 1.026 | 0.9156
Nc1ncnc2c1ncn2[C@@H]1O[C@H](COP(=O)(O)OP(=O)(O)OP(=O)(O)O)[C@@H](O)[C@H]1O [ATP] | 0.9749 | 0.855 | 0.8179 | 0.9538 | 0.8859 | 0.784 | 0.9549 | 0.8395 | 0.7365
CC(=O)SCCNC(=O)CCNC(=O)[C@H](O)C(C)(C)COP(=O)(O)OP(=O)(O)OC[C@H]1O[C@@H](n2cnc3c(N)ncnc32)[C@H](O)[C@@H]1OP(=O)(O)O [Acetyl-CoA] | 0.7257 | 0.4303 | 0.3828 | 0.6969 | 0.7538 | 0.6508 | 0.7524 | 0.685 | 0.5138
CC(=O)N[C@@H](C)C(=O)O [Acetyl-L-alanine] | 1.844 | 0.6703 | 0.7764 | 1.062 | 0.5861 | 0.7816 | 0.7593 | 1.204 | 0.7219
NCCOP(=O)(O)OP(=O)(O)OC[C@H]1O[C@@H](n2ccc(N)nc2=O)[C@H](O)[C@@H]1O [CDP-ethanolamine] | 1.165 | 0.8992 | 0.8287 | 1.33 | 1.135 | 1.07 | 1.146 | 1.029 | 0.9178
Nc1ccn([C@@H]2O[C@H](COP(=O)(O)OP(=O)(O)O)[C@@H](O)[C@H]2O)c(=O)n1 [CDP] | 1.235 | 0.632 | 0.653 | 1.081 | 0.7109 | 1.157 | 0.7322 | 0.673 | 0.7355
Nc1ccn([C@@H]2O[C@H](COP(=O)(O)O)[C@@H](O)[C@H]2O)c(=O)n1 [CMP] | 1.383 | 1.267 | 1.102 | 0.8705 | 0.5442 | 1.311 | 1.179 | 1.206 | 1.249
Nc1ccn([C@@H]2O[C@H](COP(=O)(O)OP(=O)(O)OP(=O)(O)O)[C@@H](O)[C@H]2O)c(=O)n1 [CTP] | 0.8417 | 0.6895 | 0.6055 | 0.8987 | 0.9317 | 0.7353 | 0.7379 | 0.8137 | 0.693
CC(C)CCC[C@@H](C)[C@H]1CC[C@H]2[C@@H]3CC=C4C[C@@H](OS(=O)(=O)O)CC[C@]4(C)[C@H]3CC[C@]12C [Cholesteryl sulfate] | 0.8398 | 0.919 | 0.8716 | 0.7894 | 1.057 | 0.9329 | 0.813 | 0.7802 | 0.8279
CC(C)(COP(=O)(O)OP(=O)(O)OC[C@H]1O[C@@H](n2cnc3c(N)ncnc32)[C@H](O)[C@@H]1OP(=O)(O)O)[C@@H](O)C(=O)NCCC(=O)NCCS [CoA] | 0.7833 | 0.6851 | 0.6052 | 0.7277 | 0.6878 | 0.6949 | 0.705 | 0.6678 | 0.6155
O=C1O[C@H]([C@H](O)CO)[C@H](O)[C@H]1O [D-Glucono-1-4-lactone] | 3.064 | 5.2964 | 6.162 | 1.636 | 4.1814 | 4.766 | 5.473 | 2.843 | 3.44
